Assay results reported in the supplement of paper PMC10307832.

Columns and labels:
Test in all cases: relative viability (nuclei count vs DMSO), 5 days (fraction); higher = more cells survive
XMD8-85 + Pemetrexed = compound: CN1CCN(CC1)C2=CC(=C(C=C2)NC3=NC=C4C(=N3)N(C5=CC=CC=C5C(=O)N4C)C)OC [XMD8-85] + Nc1nc2[nH]cc(CCc3ccc(C(=O)N[C@@H](CCC(=O)O)C(=O)O)cc3)c2c(=O)[nH]1 [Pemetrexed] (partner 0.2 µM)
Summary of the method: (§1)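 Lung cancer cell lines in 1536-well plates were dosed by pin tool the day after seeding, either with one drug alone or with a fixed anchor-drug dose plus five library-drug doses (not always all listed) in √10 steps. After 5 days, cells were fixed and their nuclei stained in one step (final 0.05% Triton X-100, 1% formaldehyde, 1 ug/ml Hoechst), then counted on 4× images. Relative viability is the nuclei count in treated wells divided by that in vehicle wells. Values are medians of duplicate plates.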

XMD8-85 + Olaparib = compound: CN1CCN(CC1)C2=CC(=C(C=C2)NC3=NC=C4C(=N3)N(C5=CC=CC=C5C(=O)N4C)C)OC [XMD8-85] + O=C(c1cc(Cc2n[nH]c(=O)c3ccccc23)ccc1F)N1CCN(C(=O)C2CC2)CC1 [Olaparib] (partner 8 µM)
Summary of the method: as §1

4EGI-1 + Pictilisib = compound: O=C(O)C(Cc1ccccc1[N+](=O)[O-])=NNc1nc(-c2ccc(Cl)c(Cl)c2)cs1 (mixture of isomers) [4EGI-1] + CS(=O)(=O)N1CCN(Cc2cc3nc(-c4cccc5[nH]ncc45)nc(N4CCOCC4)c3s2)CC1 [Pictilisib] (partner 1 µM)
Summary of the method: as §1

4EGI-1 + Vorinostat = compound: O=C(O)C(Cc1ccccc1[N+](=O)[O-])=NNc1nc(-c2ccc(Cl)c(Cl)c2)cs1 (mixture of isomers) [4EGI-1] + O=C(CCCCCCC(=O)Nc1ccccc1)NO [Vorinostat] (partner 1 µM)
Summary of the method: as §1

COR-L 105
relative viability (XMD8-85 + Pemetrexed; first compound 0.08 µM): 1.01
relative viability (XMD8-85 + Pemetrexed; first compound 0.253 µM): 1.16
relative viability (XMD8-85 + Pemetrexed; first compound 0.8 µM): 1.21
relative viability (XMD8-85 + Pemetrexed; first compound 2.53 µM): 0.816
relative viability (XMD8-85 + Pemetrexed; first compound 8 µM): 0.58
relative viability (XMD8-85 + Olaparib; first compound 0.08 µM): 0.7
relative viability (XMD8-85 + Olaparib; first compound 0.8 µM): 0.692
relative viability (XMD8-85 + Olaparib; first compound 2.53 µM): 0.58
relative viability (XMD8-85 + Olaparib; first compound 8 µM): 0.455
relative viability (4EGI-1 + Pictilisib; first compound 0.5 µM): 0.464
relative viability (4EGI-1 + Pictilisib; first compound 1.581 µM): 0.356
relative viability (4EGI-1 + Pictilisib; first compound 5 µM): 0.447
relative viability (4EGI-1 + Pictilisib; first compound 15.81 µM): 0.342
relative viability (4EGI-1 + Pictilisib; first compound 50 µM): 0.325
relative viability (4EGI-1 + Vorinostat; first compound 0.5 µM): 0.823
relative viability (4EGI-1 + Vorinostat; first compound 1.581 µM): 0.672
relative viability (4EGI-1 + Vorinostat; first compound 5 µM): 0.777
relative viability (4EGI-1 + Vorinostat; first compound 15.81 µM): 0.699
relative viability (4EGI-1 + Vorinostat; first compound 50 µM): 0.592

EBC-1
relative viability (XMD8-85 + Olaparib; first compound 0.08 µM): 0.649
relative viability (XMD8-85 + Olaparib; first compound 0.253 µM): 0.693
relative viability (XMD8-85 + Olaparib; first compound 0.8 µM): 0.679
relative viability (XMD8-85 + Olaparib; first compound 2.53 µM): 0.567
relative viability (XMD8-85 + Olaparib; first compound 8 µM): 0.346
relative viability (4EGI-1 + Pictilisib; first compound 0.5 µM): 0.519
relative viability (4EGI-1 + Pictilisib; first compound 1.581 µM): 0.405
relative viability (4EGI-1 + Pictilisib; first compound 5 µM): 0.416
relative viability (4EGI-1 + Pictilisib; first compound 15.81 µM): 0.269
relative viability (4EGI-1 + Pictilisib; first compound 50 µM): 0.19

COR-L23
relative viability (XMD8-85 + Pemetrexed; first compound 0.08 µM): 0.187
relative viability (XMD8-85 + Pemetrexed; first compound 0.253 µM): 0.2
relative viability (XMD8-85 + Pemetrexed; first compound 0.8 µM): 0.199
relative viability (XMD8-85 + Pemetrexed; first compound 2.53 µM): 0.187
relative viability (XMD8-85 + Pemetrexed; first compound 8 µM): 0.18
relative viability (XMD8-85 + Olaparib; first compound 0.08 µM): 0.369
relative viability (XMD8-85 + Olaparib; first compound 0.253 µM): 0.319
relative viability (XMD8-85 + Olaparib; first compound 0.8 µM): 0.421
relative viability (XMD8-85 + Olaparib; first compound 2.53 µM): 0.302
relative viability (XMD8-85 + Olaparib; first compound 8 µM): 0.236
relative viability (4EGI-1 + Pictilisib; first compound 0.5 µM): 0.96
relative viability (4EGI-1 + Pictilisib; first compound 1.581 µM): 0.549
relative viability (4EGI-1 + Pictilisib; first compound 5 µM): 0.827
relative viability (4EGI-1 + Pictilisib; first compound 15.81 µM): 0.491
relative viability (4EGI-1 + Pictilisib; first compound 50 µM): 0.135
relative viability (4EGI-1 + Vorinostat; first compound 0.5 µM): 0.672
relative viability (4EGI-1 + Vorinostat; first compound 1.581 µM): 0.261
relative viability (4EGI-1 + Vorinostat; first compound 5 µM): 0.618
relative viability (4EGI-1 + Vorinostat; first compound 15.81 µM): 0.345
relative viability (4EGI-1 + Vorinostat; first compound 50 µM): 0.103

NCI-H1793
relative viability (XMD8-85 + Pemetrexed; first compound 0.253 µM): 0.824
relative viability (XMD8-85 + Pemetrexed; first compound 0.8 µM): 0.839
relative viability (XMD8-85 + Pemetrexed; first compound 2.53 µM): 1.18
relative viability (XMD8-85 + Pemetrexed; first compound 8 µM): 0.645
relative viability (XMD8-85 + Olaparib; first compound 0.253 µM): 0.574
relative viability (XMD8-85 + Olaparib; first compound 0.8 µM): 0.71
relative viability (XMD8-85 + Olaparib; first compound 2.53 µM): 1.02
relative viability (XMD8-85 + Olaparib; first compound 8 µM): 0.66
relative viability (4EGI-1 + Pictilisib; first compound 0.5 µM): 0.363
relative viability (4EGI-1 + Pictilisib; first compound 1.581 µM): 0.266
relative viability (4EGI-1 + Pictilisib; first compound 5 µM): 0.377
relative viability (4EGI-1 + Pictilisib; first compound 15.81 µM): 0.241
relative viability (4EGI-1 + Pictilisib; first compound 50 µM): 0.235
relative viability (4EGI-1 + Vorinostat; first compound 0.5 µM): 1.03
relative viability (4EGI-1 + Vorinostat; first compound 1.581 µM): 0.823
relative viability (4EGI-1 + Vorinostat; first compound 5 µM): 0.999
relative viability (4EGI-1 + Vorinostat; first compound 15.81 µM): 0.516
relative viability (4EGI-1 + Vorinostat; first compound 50 µM): 0.353

NCI-H2085
relative viability (XMD8-85 + Pemetrexed; first compound 0.08 µM): 0.889
relative viability (XMD8-85 + Pemetrexed; first compound 0.253 µM): 0.826
relative viability (XMD8-85 + Pemetrexed; first compound 0.8 µM): 0.849
relative viability (XMD8-85 + Pemetrexed; first compound 2.53 µM): 0.811
relative viability (XMD8-85 + Pemetrexed; first compound 8 µM): 0.713
relative viability (XMD8-85 + Olaparib; first compound 0.08 µM): 0.729
relative viability (XMD8-85 + Olaparib; first compound 0.253 µM): 0.743
relative viability (XMD8-85 + Olaparib; first compound 0.8 µM): 0.77
relative viability (XMD8-85 + Olaparib; first compound 2.53 µM): 0.725
relative viability (XMD8-85 + Olaparib; first compound 8 µM): 0.699
relative viability (4EGI-1 + Pictilisib; first compound 0.5 µM): 0.538
relative viability (4EGI-1 + Pictilisib; first compound 1.581 µM): 0.513
relative viability (4EGI-1 + Pictilisib; first compound 5 µM): 0.52
relative viability (4EGI-1 + Pictilisib; first compound 15.81 µM): 0.507
relative viability (4EGI-1 + Pictilisib; first compound 50 µM): 0.439
relative viability (4EGI-1 + Vorinostat; first compound 0.5 µM): 0.922
relative viability (4EGI-1 + Vorinostat; first compound 1.581 µM): 0.815
relative viability (4EGI-1 + Vorinostat; first compound 5 µM): 0.823
relative viability (4EGI-1 + Vorinostat; first compound 15.81 µM): 0.598
relative viability (4EGI-1 + Vorinostat; first compound 50 µM): 0.295
